Test [1] concerns the target GDP-bound NRAS wild-type protein (Homo sapiens, UniProt P01111). As to the kind of experiment: Binding to NRAS by surface plasmon resonance (SPR), KD and KD ratio to KRAS. The method in brief: (§1)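 Compound binding is evaluated by SPR single-cycle kinetics, with concentrations added intermittently from low to high for 75 s each. Target surfaces carry GDP-loaded biotinylated Avi-RAS at about 100–300 RU, regenerated after each cycle; temperature 30°C. A 1:1 binding model gives KD.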

Test [2] addresses HRAS wild-type protein (Homo sapiens, UniProt P01112). Kind of test: Binding to HRAS by surface plasmon resonance (SPR), KD and KD ratio to KRAS. The method in brief:
as §1

Test [3] deals with human lung cancer strain NCI-H441. The test is classed as cell-based. A digest of the protocol:
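Proliferation was scored by […] measured after the reagent was added to cultures kept at 37°C in 5% carbon dioxide.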

[4] abbreviates: ratio of KD for GDP-bound NRAS wild-type protein to KD for KRAS.
Where [5] appears, read: ratio of KD for HRAS wild-type protein to KD for KRAS.
[6] abbreviates: ratio of KD value for GDP-bound NRAS wild-type protein to KD value for KRAS (SPR).
Setting [7] is: ratio of KD value for HRAS wild-type protein to KD value for KRAS (SPR).
Setting [8] is: ratio of the KD value with respect to GDP-bound NRAS wild-type protein to the KD value with respect to KRAS.
Where [9] appears, read: ratio of the KD value with respect to HRAS wild-type protein to the KD value with respect to KRAS.

Experimental findings from patent publication EP4603105A1, “PHARMACEUTICAL COMPOSITION CONTAINING CYCLIC COMPOUND HAVING SELECTIVE KRAS INHIBITORY EFFECT AGAINST HRAS AND NRAS” (CHUGAI SEIYAKU KABUSHIKI KAISHA, priority 2022, dated 2024) are described below.

*1 amine or outer side, *2 acyl side, *3 side chain or, on linkers, in order; H or OH if unused. Where a SMILES comes first, the peptide text is derived from it. Bridges are numbered along the chain shown (N, C = ends). [ ]: non-standard residue; d: D form. The star is where a group is joined. hPhe(3-Cl-4-CF3) = N[C@@H](CCc1ccc(C(F)(F)F)c(Cl)c1)C(=O)O; NPrPhe(4-CF3) = CCCN[C@@H](Cc1ccc(C(F)(F)F)cc1)C(=O)O; X27 = COCCCN([C@@H](Cc1ccc(C)cc1)C(=O)[*:2])[*:1]; NMeGly(cPent) = CN[C@H](C(=O)O)C1CCCC1; Pro(4,4-F2) = O=C(O)[C@@H]1CC(F)(F)CN1; NMeD = CN[C@@H](CC(=O)O)C(=O)O; NMeL = CN[C@@H](CC(C)C)C(=O)O; Morpholide = C1CN(*)CCO1; NMeA = CN[C@@H](C)C(=O)O; Ac5c = NC1(C(=O)O)CCCC1; Aze = O=C(O)[C@@H]1CCN1; Ac4c = NC1(C(=O)O)CCC1; NEtG = CCNCC(=O)O; Sar = CNCC(=O)O

The term IC50 denotes the point on the concentration scale where inhibition reaches its midpoint.

Chain of HRAS wild-type protein (P01112 whole entry): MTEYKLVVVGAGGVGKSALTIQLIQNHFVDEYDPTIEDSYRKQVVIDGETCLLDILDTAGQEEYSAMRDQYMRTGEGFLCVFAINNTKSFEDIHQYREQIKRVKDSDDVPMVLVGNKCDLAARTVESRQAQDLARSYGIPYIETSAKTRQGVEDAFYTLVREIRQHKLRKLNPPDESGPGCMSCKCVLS
Chain of GDP-bound NRAS wild-type protein (P01111 whole entry): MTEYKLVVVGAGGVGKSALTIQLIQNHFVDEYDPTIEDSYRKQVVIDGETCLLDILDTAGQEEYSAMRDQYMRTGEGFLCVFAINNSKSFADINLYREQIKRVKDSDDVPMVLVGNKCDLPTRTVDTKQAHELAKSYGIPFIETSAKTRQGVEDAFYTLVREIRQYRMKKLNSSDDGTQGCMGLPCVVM

`CCCN1C(=O)CN(C)C(=O)CN(CC)C(=O)[C@H]([C@@H](C)CC)NC(=O)[C@H](CC(C)C)N(C)C(=O)C[C@@H](C(=O)N(C)C)NC(=O)[C@H](C2CCCC2)N(C)C(=O)C2(CCC2)NC(=O)[C@@H]2CC(F)(F)CN2C(=O)[C@H](CCc2ccc(C(F)(F)F)c(Cl)c2)NC(=O)CN(C)C(=O)[C@@H]1Cc1ccc(C(F)(F)F)cc1` [PP0370] ([NMeL]I[NEtG][Sar][NPrPhe(4-CF3)][Sar][hPhe(3-Cl-4-CF3)][Pro(4,4-F2)][Ac4c][NMeGly(cPent)]D-NMe2; lactam N-11): the “NRAS /KRAS” value in test [1] (setting [4]) was “B (a compound having 3 or more and less than 10 is denoted as B)”. For the same molecule, the “HRAS /KRAS” value in test [2] (setting [5]) was “C (A compound having a KD ratio of 0.1 or more and less than 3 is denoted as C)”. In test [3], this molecule showed an IC50 of 63.2 nM.

As to `CCO[C@@H]1C[C@H]2C(=O)NC3(CCC3)C(=O)N(C)[C@@H](C3CCCC3)C(=O)N(C)[C@H](C(=O)N(C)C)CC(=O)N(C)[C@@H](CC3CCCC3)C(=O)N[C@@H]([C@@H](C)CC)C(=O)N(C)CC(=O)N(C)[C@H]3C/C=C\CCN(C3=O)[C@@H](Cc3ccc(C)cc3)C(=O)N(C)CC(=O)N[C@@H](CCc3cc(F)c(CC)c(OC)c3)C(=O)N2C1` [PP2674], in test [1] (setting [4]), the “NRAS /KRAS” value is “A (a compound having 10 or more and less than 20 is denoted as A)”. The “HRAS /KRAS” value in test [2] (setting [5]) was “A (a compound having 10 or more and less than 20 is denoted as A)”. For the same molecule, it took 48.6 nM to reach half-maximal inhibition in test [3] (IC50).

Consider `CCCN1C(=O)CN(C)C(=O)CN(CC)C(=O)[C@H]([C@@H](C)CC)NC(=O)[C@H](CC(C)C)N(C)C(=O)C[C@@H](C(=O)N2CCOCC2)N(C)C(=O)[C@H](C2CCCC2)N(C)C(=O)C2(CCCC2)NC(=O)[C@@H]2CCCN2C(=O)[C@H](CCc2ccc(C(F)(F)F)c(Cl)c2)NC(=O)CN(C)C(=O)[C@@H]1Cc1ccc(C(F)(F)F)cc1` [PP0145] ([NMeL]I[NEtG][Sar][NPrPhe(4-CF3)][Sar][hPhe(3-Cl-4-CF3)]P[Ac5c][NMeGly(cPent)][NMeD]-Morpholide; lactam N-11), for which, in test [1] (setting [4]), the “NRAS /KRAS” value is “B (a compound having 3 or more and less than 10 is denoted as B)”. The “HRAS /KRAS” value in test [2] (setting [5]) is “B (a compound having 3 or more and less than 10 is denoted as B)”. Also, the IC50 in test [3] was found to be 8.8 nM.

Regarding `CCO[C@@H]1C[C@H]2C(=O)NC3(CCC3)C(=O)N(C)[C@@H](C3CCCC3)C(=O)N(C)[C@H](C(=O)N(C)C)CC(=O)N(C)[C@@H](Cc3ccc(Cl)cc3)C(=O)N[C@@H]([C@@H](C)CC)C(=O)N(C)CC(=O)N(C)[C@H]3CCCCCN(C3=O)[C@@H](Cc3ccc(C(F)(F)F)cc3)C(=O)N(C)CC(=O)N[C@@H](CCc3cc(F)c(C(F)(F)F)c(F)c3)C(=O)N2C1` [PP0940], in test [1] (setting [4]), the “NRAS /KRAS” value is “B (a compound having 3 or more and less than 10 is denoted as B)”. The “HRAS /KRAS” value in test [2] (setting [5]) is “C (A compound having a KD ratio of 0.1 or more and less than 3 is denoted as C)”. In test [3], the IC50 stood at 110 nM.

Take `CC[C@H](C)[C@@H]1NC(=O)[C@H](CC)N(C)C(=O)C[C@@H](C(=O)N(C)C)N(C)C(=O)[C@H](C2CCCC2)N(C)C(=O)C2(CCCC2)N(C)C(=O)[C@@H]2CCCN2C(=O)[C@H](CCc2cc(F)c(C(F)(F)F)c(F)c2)NC(=O)CN(C)C(=O)[C@H](Cc2ccc(C)cc2)N2CC/C=C\C[C@@H](C2=O)N(C)C(=O)CN(C)C1=O` [PP1807]: the “NRAS /KRAS” value in test [1] (setting [6]) is “A (a compound having 10 or more and less than 20 is denoted as A)”. Moreover, the “HRAS /KRAS” value in test [2] (setting [7]) was “B (a compound having 3 or more and less than 10 is denoted as B)”. For the same molecule, in test [3], the IC50 is 5 nM.

Regarding `CCO[C@@H]1C[C@H]2C(=O)NC3(CC(C)(C)C3)C(=O)N(C)[C@@H](C(CC)CC)C(=O)N3CCC[C@@H]3CC(=O)N(C)[C@@H](CC)C(=O)N[C@@H]([C@@H](C)CC)C(=O)N(C)CC(=O)N(C)[C@H]3C/C=C\CCN(C3=O)[C@@H](Cc3ccc(C(F)(F)F)cc3)C(=O)N(C)CC(=O)N[C@@H](CCc3cc(F)c(C(F)(F)F)c(F)c3)C(=O)N2C1` [PP1605], the “NRAS /KRAS” value in test [1] (setting [6]) was “A (a compound having 10 or more and less than 20 is denoted as A)”. In addition, the “HRAS /KRAS” value in test [2] (setting [7]) was “A (a compound having 10 or more and less than 20 is denoted as A)”. The same molecule showed an IC50 in test [3] of 31.6 nM.

For the molecule `CCO[C@@H]1C[C@H]2C(=O)NC3(CCC3)C(=O)N(C)[C@@H](C3CCCC3)C(=O)N(CC)[C@H](C(=O)N3CCOCC3)CC(=O)N(C)[C@@H](CC(C)C)C(=O)N[C@@H]([C@@H](C)CC)C(=O)N(C)CC(=O)N(C)[C@H]3CCCCN(C3=O)[C@@H](Cc3ccc(C(F)(F)F)cc3)C(=O)N(C)CC(=O)N[C@@H](CCc3cc(F)c(C(F)(F)F)c(F)c3)C(=O)N2C1` [PP0648], the “NRAS /KRAS” value in test [1] (setting [8]) is “B (a compound having 3 or more and less than 10 is denoted as B)”. For the same molecule, the “HRAS /KRAS” value in test [2] (setting [9]) is “B (a compound having 3 or more and less than 10 is denoted as B)”. In addition, in test [3], the IC50 came out at 20.8 nM.

Take `CC[C@H](C)[C@@H]1NC(=O)[C@H](CC(C)C)N(C)C(=O)C[C@@H](C(=O)N2CCOCC2)N(C)C(=O)[C@H](C2CCCC2)N(C)C(=O)C2(CCCC2)NC(=O)[C@@H]2CCCN2C(=O)[C@H](CCc2ccc(C(F)(F)F)c(Cl)c2)NC(=O)CN(C)C(=O)[C@H](Cc2ccc(C)cc2)N(CCCOC)C(=O)[C@@H]2CCN2C(=O)[C@H](C)N(C)C1=O` [PP0093] ([NMeL]I[NMeA][Aze][X27][Sar][hPhe(3-Cl-4-CF3)]P[Ac5c][NMeGly(cPent)][NMeD]-Morpholide; lactam N-11): the “NRAS /KRAS” value in test [1] (setting [4]) was “C (A compound having a KD ratio of 0.1 or more and less than 3 is denoted as C)”. Moreover, the “HRAS /KRAS” value in test [2] (setting [5]) is “B (a compound having 3 or more and less than 10 is denoted as B)”. The same molecule registered an IC50 in test [3] of 2.2 nM.

On to `CCO[C@@H]1C[C@H]2C(=O)NC3(CC(C)(C)C3)C(=O)N(C)[C@@H](C(CC)CC)C(=O)N(C)[C@H](C(=O)N(C)C)CC(=O)N(C)[C@@H](C(C)C)C(=O)N[C@@H]([C@@H](C)CC)C(=O)N(C)CC(=O)N(C)[C@H]3C/C=C\CCN(C3=O)[C@@H](Cc3ccc(C)cc3)C(=O)N(C)CC(=O)N[C@@H](CCc3ccc(Cl)c(Cl)c3)C(=O)N2C1` [PP2122], for which the “NRAS /KRAS” value in test [1] (setting [8]) is “AA (a compound having 20 or more is denoted as AA)”. Besides, the “HRAS /KRAS” value in test [2] (setting [9]) is “A (a compound having 10 or more and less than 20 is denoted as A)”. Further, in test [3], the midpoint of inhibition, the IC50, lay at 107 nM.

In the case of `CCCN1C(=O)CN(C)C(=O)CN(CC)C(=O)[C@H]([C@@H](C)CC)NC(=O)[C@H](CC(C)C)N(C)C(=O)C[C@@H](C(=O)N2CCOCC2)NC(=O)[C@H](C2CCCC2)N(C)C(=O)C2(CCC2)NC(=O)[C@@H]2CCCN2C(=O)[C@H](CCc2ccc(C(F)(F)F)c(Cl)c2)NC(=O)CN(C)C(=O)[C@@H]1Cc1ccc(C(F)(F)F)cc1` [PP0332] ([NMeL]I[NEtG][Sar][NPrPhe(4-CF3)][Sar][hPhe(3-Cl-4-CF3)]P[Ac4c][NMeGly(cPent)]D-Morpholide; lactam N-11), the “NRAS /KRAS” value in test [1] (setting [4]) was “B (a compound having 3 or more and less than 10 is denoted as B)”. In test [2] (setting [5]), the “HRAS /KRAS” value was “B (a compound having 3 or more and less than 10 is denoted as B)”. Moreover, the 50% inhibitory concentration (IC50) in test [3] worked out at 167 nM.

As for `CCC[C@H]1C(=O)N[C@@H]([C@@H](C)CC)C(=O)N(C2CC2)CC(=O)N(C)[C@H]2C/C=C\CCN(C2=O)[C@@H](Cc2ccc(C(F)(F)F)cc2)C(=O)N(C)CC(=O)N[C@@H](CCc2ccc(C(F)(F)F)c(OC)c2)C(=O)N2C[C@H](OCC)C[C@H]2C(=O)NC2(CC(C)(C)C2)C(=O)N(C)[C@@H](CC2CC2)C(=O)N(C)[C@H](C(=O)N(C)C)CC(=O)N1C` [PP2815], the “NRAS /KRAS” value in test [1] (setting [4]) is “A (a compound having 10 or more and less than 20 is denoted as A)”. Further, in test [2] (setting [5]), the “HRAS /KRAS” value was “A (a compound having 10 or more and less than 20 is denoted as A)”. The molecule also returned an IC50 in test [3] of 188 nM.
